Experimental data from paper PMC5740485 (Biochemistry, 2017).
Where “and” joins values, the source holds several entries; their conditions need not be identical. Equal values may be shown once. Entries after “also recorded” stand apart in the source; their conditions may differ. Read-outs that look alike come from different tables or passages of the source.

Assays:
[1] = target: T1, E. coli dihydrofolate reductase (ecDHFR) (Escherichia coli, UniProt P0ABQ4); assay type: binding; conditions: 0.1 mM ecDHFR; for ILOE signals with metformin (co-binding): 5 mM of each ligand (Fenbufen 2 mM), pH 6.8, 25 °C
T1 sequence (P0ABQ4 1-159): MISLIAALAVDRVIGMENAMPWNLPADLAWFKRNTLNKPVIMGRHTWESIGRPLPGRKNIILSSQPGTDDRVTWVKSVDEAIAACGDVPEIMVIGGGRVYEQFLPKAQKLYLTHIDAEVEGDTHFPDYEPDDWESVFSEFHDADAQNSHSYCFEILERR

[2] = target: T1, E. coli dihydrofolate reductase (ecDHFR)
[3] = target: T1, E. coli dihydrofolate reductase (ecDHFR); assay: Steady state kinetics of ecDHFR inhibition; assay type: biochemical; conditions: for α value (cooperative inhibition by MFM and pABG): Dixon plots, DHF 7.5 μM, α > 1 = negative cooperativity; for Ki: 30 °C, pH 7.0; for mode of inhibition: versus DHF, Lineweaver-Burk plot
[4] = target: T1, E. coli dihydrofolate reductase (ecDHFR); assay: Isothermal titration calorimetry; assay type: binding
[5] = target: T1, E. coli dihydrofolate reductase (ecDHFR); assay: biochemical; conditions: NMR
L. casei DHFR = conditions: cited from earlier work
[6] = Ki, Lineweaver-Burk slope vs inhibitor concentration, NADPH 70 μM

Compound: Cc1cc(C(=O)CCC(=O)O)c(C)c(C)c1C [2,3,4,5-tetramethyl, 3-(2,3,4,5-tetramethylbenozyl)propionate]
- ILOE signals with metformin (co-binding) [1]: stronger ILOE signals

Compound: COc1ccc(C(=O)NCC(=O)O)cc1OC [3,4-Dimethoxyhippurate, 3,4-dimethoxyhippurate]
- ILOE signals with metformin (co-binding) [1]: weak ILOE cross peaks

Compound: CC(C)c1ccc(C(=O)CCC(=O)O)cc1 [4-isopropyl, 3-(4-isopropylbenozyl)propionate]
- ILOE signals with metformin (co-binding) [1]: stronger ILOE signals

Compound: Cc1ccc(C(=O)NCC(=O)O)cc1 [4-methylhippurate]
- ILOE signals with metformin (co-binding) [1]: ILOE signals were obtained

Compound: Cc1ccc(C(=O)CCC(=O)O)c(C)c1 [DMBP, 3-(2,4-dimethylbenzoyl)propionate]
- Kd ([2]; NMR serial titration, no other ligand): 5.4 mM

Compound: O=C(O)c1cc(-c2ccc(F)cc2F)ccc1O [Diflunisal]
- transferred NOE signals ([1]; screening buffer, 25 °C): transferred NOE signals consistent with binding

Compound: CN(C)C(=N)N=C(N)N [Metformin]
- α value (cooperative inhibition by MFM and pABG) ([3]; NADPH 70 μM): 3.3 ± 1.3
- Ki [3, 6]: 24 ± 7 mM
- Ki ([3]; Ki, non-linear global fit of all the data (SAS), NADPH): 17.9 mM
- mode of inhibition ([3]; listed as MFM): competitive binding; also recorded: competitive inhibition
- ΔH ([4]; ITC competitive displacement by DHF, NADP+ present, initial fit with variable ΔH): -1.1 ± 3.2 kcal/mol
- Kd ([4]; mean Kd, stated as mean of NMR and ITC displacement studies): 17.9 mM
- Kd ([5]; Ile5 resonance, no other ligand, pH 7.2 in D2O): 14.8 mM and 15.9 mM
- Kd ([5]; Ile50, 75 mM DMBP present): 7 ± 0.16 mM
- Kd ([5]; Ile50′ (MFM-sensitive resonance), 50 mM pABG present): 6.89 ± 0.56 mM
- Kd ([5]; Ile50′, 50 mM pABG and 2 mM NADP+ present): 5.27 ± 0.71 mM
- Kd ([5]; Ile61′ (MFM-sensitive resonance), 50 mM pABG present): 5.36 ± 1.15 mM
- affinity relative to DAP (fold weaker) ([2]; ecDHFR affinity for MFM versus DAP): ~ 20 fold

Compound: [H]/N=C(/N)N/C(=N/[H])NCCc1ccccc1 [Phenformin, phenformin]
- Ki [3, 6]: 0.17 ± 0.02 mM
- inhibition constant relative to metformin (fold lower) ([3]; phenformin Ki versus metformin Ki): 100 fold
- mode of inhibition [3]: competitive inhibition
- Kd ([4]; Kd, ITC direct titration, cofactor NADP+, pH 7.0, 25° C): 0.188 ± 0.018 mM
- Kd ([4]; Kd, ITC direct titration, cofactor NADPH, pH 7.0, 25° C): 0.098 ± 0.007 mM
- Kd ([4]; Kd, ITC direct titration, no cofactor, pH 7.0, 25° C): 0.716 ± 0.045 mM

Compound: O=C(O)CNC(=O)c1ccccc1 [hippurate, N-benzoylglycine]
- ILOE signals with metformin (co-binding) [1]: neither transferred NOE nor ILOE MFM-hippurate cross peaks were observed

Compound: Nc1ccc(C(=O)N[C@@H](CCC(=O)O)C(=O)O)cc1 [pABG, p-aminobenzoyl-L-glutamate]
- α value (cooperative inhibition by MFM and pABG) ([3]; NADPH 70 μM): 3.3 ± 1.3
- Kd/Ki ratio ([3]; Kd (NMR, no cofactor) over Ki (NADPH present)): 4.4
- Ki ([3]; Lineweaver-Burk slope vs inhibitor concentration, NADPH 70 μM): 1.8 ± 0.3 mM
- Ki ([3]; non-linear global fit of all the data (SAS), NADPH): 1.3 ± 0.2 mM
- Kd ratio in the absence and presence of NADPH (L. casei DHFR): 4.5
- ILOE signals with metformin (co-binding) [1]: ILOE signals connecting the MFM methyl resonances with the pABG aromatic resonances were present
- Kd ([2]; NMR, Ile50 resonance, no other ligand, pH 7.2 in D2O): 7.64 ± 0.53 mM
- Kd ([2]; NMR, Ile61 resonance, no other ligand, pH 7.2 in D2O): 8.09 ± 0.52 mM
- Kd ([2]; NMR, Ile94 resonance, no other ligand, pH 7.2 in D2O): 8 ± 0.37 mM
- Kd ([2]; read-out: Kd (mean), mean of NMR values from Ile50, Ile61, Ile94): 7.9 mM and 7.91 mM
